Measurements from US10736910B2, “Treatment of autophagy-based disorders and related pharmaceutical compositions, diagnostic and screening assays and kits” (STC.UNM, priority 2012, dated 2020).
Square brackets hold non-standard residues; d marks the D form. Peptide text beside a SMILES is read from it. Nle = CCCC[C@H](N)C(=O)O

How the values were obtained:
[1] = system: Atg5fl/fl LysM-Cre− and Cre+ bone marrow-derived macrophages (BMM); assay: IL-1α release (ELISA) from LPS- and IFN-γ-stimulated bone marrow-derived macrophages; type: cell-based, murine; details: 12 h; for IL-1α secreted: autophagy-competent Atg5fl/fl LysM-Cre− BMM, LPS and IFN-γ stimulated, 50 μg/ml rapamycin, 10 mM 3-MA or 100 nM Bafilomycin A1
Description: FIG. 5. Excess cytokine secretion is a cell-autonomous property of autophagy-deficient macrophages and IL-1α hypersecretion by Atg5^fl/fl LysM-Cre^+ macrophages depends on reactive oxygen intermediates and calpain. (A-C) In vitro cytokine (IL-1α, CXCL1, and IL-12p70) release (ELISA) from LPS- and IFN-γ-stimulated Atg5^fl/fl LysM-Cre^− and Cre^+ bone marrow-derived macrophages (BMM). (D) CXCL1 released from LPS- and IFN-γ-stimulated Atg5^fl/fl LysM-Cre^+ BMM in the absence of presence of IL-1RA ([…]). (E) Fraction of 7-AAD^+ BMM after LPS and IFN-γ stimulation in vitro. (F,G) IL-1α and CXCL1 levels (ELISA) in lung homogenates of uninfected Atg5^fl/fl LysM-Cre^− and Cre^+ mice. (H,I) IL-1α (ELISA) released from LPS- and IFN-γ stimulated Atg5^fl/fl LysM-Cre BMM in the presence of 50 μg/ml rapamycin (Rap), 10 mM 3-MA, or 100 nM Bafilomycin A1 (Baf A1) after 12 h of stimulation. (J) IL-1α secretion during inflammasome activation. Atg5^fl/fl LysM-Cre^− and Cre^+ BMM were pretreated overnight with LPS (100 ng/ml) then stimulated for 1 h in the absence or presence of the inflammasome agonist silica (250 μg/ml) in EBSS. (K) IL-1α secretion in the presence of caspase 1 inhibitor YVAD. Atg5^fl/fl LysM-Cre^− and Cre^+ BMM were pretreated overnight with LPS (100 ng/ml) then stimulated for 1 h in the absence or presence of YVAD (50 μM) during inflammasome activation with silica as in J. (L) Effects of caspase 1 siRNA knockdown (immunoblot, left) on IL-1α release (graph, right) from Atg5^fl/fl LysM-Cre^+ BMM. Graph (center), IL-1α release from LPS-stimulated siRNA-treated Atg5^fl/fl LysM-Cre^+ BMM in full media or EBSS (Starv). Graph (right), same as middle graph in full medium only. Casp 1, caspase 1 siRNA: Scr, scrambled, control siRNA. (M) IL-1α release from LPS- and IFN-γ-stimulated Atg5^fl/fl LysM-Cre^+ BMM knocked down with siRNA for inflammasome components ASC and NLRP3. (N,O) ROS inhibition and IL-1 secretion: IL-1α (N) and IL-1β (0) released (ELISA) from LPS- and IFN-γ-stimulated Atg5^fl/fl LysM-Cre^− and Cre^+ BMM in the absence or presence of ROS antagonist APDC (50 μM) after 12 h of incubation. (P) Calpain and […] hypersecretion phenotype. IL-1β (ELISA) released from LPS- and IFN-γ stimulated Atg5^fl/fl LysM-Cre^− and Cre^+ BMM in the absence or presence of calpain inhibitor ALLN (100 μM) after 12 h of stimulation. Data, mean±SE, *p<0.05, **p<0.01, † p>0.05 (t test; n≥3).
(§1) All cells were pretreated with Stain FcX (anti-CD16/32) (Biolegend) before being stained for. […] Caspase 1 activity was measured by flow cytometry using the FLICA caspase 1 reagent (FAM-YVAD-FMK) (Immunochemistry Technologies). […] Secreted cytokines (IL-1αIL-1β CXCL1, CXCL2 and IL-12p70) were measured by ELISA (R&D Systems). […]

[2] = system: Atg5fl/fl LysM-Cre− and Cre+ bone marrow-derived macrophages (BMM); assay: IL-1β release (ELISA) from LPS- and IFN-γ-stimulated bone marrow-derived macrophages; type: cell-based, murine; details: APDC 50 μM, 12 h
Description: (§2) FIG. 5. Excess cytokine secretion is a cell-autonomous property of autophagy-deficient macrophages and IL-1α hypersecretion by Atg5^fl/fl LysM-Cre^+ macrophages depends on reactive oxygen intermediates and calpain. (A-C) In vitro cytokine (IL-1α, CXCL1, and IL-12p70) release (ELISA) from LPS- and IFN-γ-stimulated Atg5^fl/fl LysM-Cre^− and Cre^+ bone marrow-derived macrophages (BMM). (D) CXCL1 released from LPS- and IFN-γ-stimulated Atg5^fl/fl LysM-Cre^+ BMM in the absence of presence of IL-1RA ([…]). (E) Fraction of 7-AAD^+ BMM after LPS and IFN-γ stimulation in vitro. (F,G) IL-1α and CXCL1 levels (ELISA) in lung homogenates of uninfected Atg5^fl/fl LysM-Cre^− and Cre^+ mice. (H,I) IL-1α (ELISA) released from LPS- and IFN-γ stimulated Atg5^fl/fl LysM-Cre BMM in the presence of 50 μg/ml rapamycin (Rap), 10 mM 3-MA, or 100 nM Bafilomycin A1 (Baf A1) after 12 h of stimulation. (J) IL-1α secretion during inflammasome activation. […]
FIG. 10. […] IL-1β secretion was examined in autophagy-competent Atg5fl/fl LysM-CreBMM and IL-1α secretion was measured in autophagy-deficient Atg5fl/fl LysM-Cre+ BMM. […]
All cells were pretreated with Stain FcX (anti-CD16/32) (Biolegend) before being stained for. […] Caspase 1 activity was measured by flow cytometry using the FLICA caspase 1 reagent (FAM-YVAD-FMK) (Immunochemistry Technologies). […]

TBK-1 = assay: IL-1β secretion with pharmacological TBK-1 inhibition (preliminary studies); type: cell-based; details: preliminary studies with TBK-1 inhibitor
BMM = assay: HMGB1 extracellular release from BMM (immunoblot of culture supernatants); type: cell-based, murine; details: BMM stimulated with nigericin; largely diminished in Atg5-deficient BMM
Description: We tested whether induction of autophagy affected other proteins not connected to proteolytic processing in the inflammasome, such as HMGB1 (high mobility group box 1 protein). HMGB1 is a major pro-inflammatory alarmin or DAMP (damage-associated molecular pattern) normally present in the nucleus (34A). This chromatin-associated nuclear protein (with additional intracellular and extracellular signaling roles), upon exposure to inputs including those that induce autophagy (63A,64A), undergoes a complex set of biochemical and localization changes. In the process, it first translocates from the nucleus into the cytoplasm and then is released from the cytoplasm to act in tissue remodeling signaling (when acting alone) or as an inflammatory mediator (when combined with bacterial agonists or other alarmins such as IL-1β). […] HMGB1, along with additional unconventional substrates, depends on inflammasome for secretion although the protein itself is not subjected to proteolytic processing by caspase 1 (65A-68A).

Atg5fl/fl LysM-Cre+ BMM = assay: CXCL1 release (ELISA) from LPS- and IFN-γ-stimulated Atg5fl/fl LysM-Cre+ BMM; type: cell-based, murine; set-up: dose or concentration left out as unconfirmed; details: IL-1RA
Description: as §2, §1

naïve CD4 T cells = assay: Ex vivo Th17 polarization of naïve CD4 T cells (intracellular IL-17A, flow cytometry); type: cell-based, mice; details: 20 ng/ml IL-1α in combination with 5 ng/ml TGF-β and 20 ng/ml IL-6, day 4
Experimental: FIG. 9. T cell activation state and IL-1α role in T cell IL-17 polarization. (A,B) CD44 and CD25 expression on CD4 T cells from lungs of uninfected Atg5fl/fl LysM-Cre and Cre+mice. (C-F) Intracellular IL-17A production (day 4; release blocked with monensin) by naïve CD4 T cells polarized in the presence of cytokine cocktails: 5 ng/ml TGF-β and 20 ng/ml IL-6, plus 20 ng/ml IL-1α or 20 ng/ml IL-1β. Dot plot (panel C), levels of IL-17A in unstimulated cells (starting material). Histograms (D,E), IL-17A in naïve CD4 T cells polarized in the presence of TGF-β, IL-6 and IL-1α (panel D) or TGF-β, IL-6 and IL-1β (panel E). (F) Percent of IL-17A+CD4 T cells under respective polarizing conditions. Data: mean±SE; † p>0.05 (t test; n≥3).
Single cell suspensions from whole lungs isolated from naïve Atg5^fl/fl LysM-Cre^+ and Cre^− mice were cultured in RPMI 10% FBS and Cell Stimulation Cocktail (phorbol 12-myristate 13-acetate and ionomycin plus brefeldin A and monensin; eBioscience) for 4 h and analyzed by flow cytometry. […] After 4 days, cells were stimulated with 1× Cell Stimulation Cocktail in the presence of protein transport inhibitors for 5 hours at 37° C. and analyzed by flow cytometry.

Cn1cnc(N)c2ncnc1-2 [3MA, 3-methyladenine]
IL-1α secreted [1]: significantly increased

CCCC[C@@H](C=O)NC(=O)[C@H](CC(C)C)NC(=O)[C@H](CC(C)C)NC(C)=O [ALLN] (Ac-Leu-Leu-[Nle]-aldehyde)
excess IL-1α production ([1]; LPS- and IFN-γ-stimulated Atg5fl/fl LysM-Cre+ BMM, ALLN 100 μM): completely inhibited the excess IL-1α production

N[C@@]1(C(=O)O)CN[C@@H](C(=O)O)C1 [APDC, (2R,4R)-4-aminopyrrolidine-2,4-dicarboxylate]
excessive IL-1β release [2]: inhibited excessive IL-1β release | excessive IL-1α release ([1]; LPS- and IFN-γ-stimulated Atg5fl/fl LysM-Cre+ BMM, APDC 50 μM): abrogated excessive IL-1α

O=C(NCCCNc1nc(Nc2cccc(NC(=O)N3CCCC3)c2)ncc1I)c1cccs1 [BX795]
IL-1β secretion (TBK-1): reduced

CO/C1=C\C(C)=C\[C@@H](C)[C@@H](O)[C@@H](C)C/C(C)=C/C=C/[C@H](OC)[C@@H]([C@@H](C)[C@@H](O)[C@H](C)[C@@]2(O)C[C@@H](O)[C@H](C)[C@@H](C(C)C)O2)OC1=O [bafilomycin A1]
IL-1α secreted [1]: An effect similar to 3MA

CO[C@@H]1C[C@@H](C[C@H]2CC[C@H](C)[C@H]([C@@H](C)C(=O)O)O2)O[C@]2(O[C@](C)([C@H]3CC[C@@](C)([C@@H]4O[C@@H]([C@H]5O[C@@](O)(CO)[C@H](C)C[C@@H]5C)C[C@@H]4C)O3)C[C@H]2C)[C@@H]1C [nigericin]
HMGB1 in culture supernatants (BMM): An HMGB1 band was detected

IL-1RA: IL-1 receptor antagonist (R&D Systems)
CXCL1 levels (Atg5fl/fl LysM-Cre+ BMM): lowered CXCL1 levels

B1: IL-1α: cytokine (R&D Systems) added at 20 ng/ml for T cell polarization (protein, UniProt P01583 113-271, looked up)
Interleukin-1 alpha: SAPFSFLSNVKYNFMRIIKYEFILNDALNQSIIRANDQYLTAAALHNLDEAVKFDMGAYKSSKDDAKITVILRISKTQLYVTAQDEDQPVLLKEMPEIPKTITGSETNLLFFWETHGTKNYFTSVAHPNLFIATKQDYWVCLAGGPPSITDFQILENQA
Th17 polarization (IL-17A+ CD4 T cells) (naïve CD4 T cells): showed a capacity to promote Th17 polarization
